Patent publication US8846951B2 (AbbVie Inc., priority 2009, dated 2014)
pEC50: −log10 of the molar value. Where two headings read alike, the source gives them in different places.

Key:
[1] = molecular target: T1, 5HT2B receptors (Homo sapiens, UniProt P41595); assay: Human 5-HT2B functional high throughput screening assay in CHO-K1 cells (calcium flux); format: cell-based; conditions: for pEC50: CHO-K1 cells, calcium flux
T1 construct: expressed in transfected cells; host or cells: CHO-K1 cells
Procedure, shortened: (§1)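 Frozen CHO-K1 cells overexpressing the receptor were plated, serum-starved overnight, then loaded with Ca4 dye plus 2.5 mM probenecid for 60 min at room temperature. FLIPR fluorescence (ex 480/em 530 nm, 25 °C) after compound addition was normalized to serotonin; EC50 and Emax came from 4-parameter logistic fits.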

[2] = molecular target: T2, 5HT2C receptors (Homo sapiens, UniProt P28335); assay: Human 5-HT2C functional high throughput screening assay in CHO-K1 cells (calcium flux); format: cell-based; set-up: expressed in transfected cells; host or cells: CHO-K1 cells; conditions: for Emax: 5-HT2C, maximum functional response as percentage relative to the effect of serotonin; for pEC50: CHO-K1 cells, calcium flux
T2 sequence (P28335 33-458): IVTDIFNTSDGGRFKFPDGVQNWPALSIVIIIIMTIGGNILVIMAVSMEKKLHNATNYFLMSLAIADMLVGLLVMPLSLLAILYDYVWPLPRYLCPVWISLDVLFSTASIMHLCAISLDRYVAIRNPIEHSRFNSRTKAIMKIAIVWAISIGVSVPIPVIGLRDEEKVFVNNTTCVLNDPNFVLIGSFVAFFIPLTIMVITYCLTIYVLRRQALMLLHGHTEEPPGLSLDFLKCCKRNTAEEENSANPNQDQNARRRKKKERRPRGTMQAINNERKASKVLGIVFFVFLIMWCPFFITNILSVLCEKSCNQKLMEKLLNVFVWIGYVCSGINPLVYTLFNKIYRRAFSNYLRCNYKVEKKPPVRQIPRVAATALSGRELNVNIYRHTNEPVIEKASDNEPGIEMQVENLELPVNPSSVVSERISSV
Procedure, shortened: as §1

[3] = 5-HT2B, maximum functional response as percentage relative to the effect of serotonin
[4] = 5-HT2B agonist activity, read-out: EC50
[5] = 5-HT2C agonist activity, read-out: EC50

T1 sequence (P41595 whole entry): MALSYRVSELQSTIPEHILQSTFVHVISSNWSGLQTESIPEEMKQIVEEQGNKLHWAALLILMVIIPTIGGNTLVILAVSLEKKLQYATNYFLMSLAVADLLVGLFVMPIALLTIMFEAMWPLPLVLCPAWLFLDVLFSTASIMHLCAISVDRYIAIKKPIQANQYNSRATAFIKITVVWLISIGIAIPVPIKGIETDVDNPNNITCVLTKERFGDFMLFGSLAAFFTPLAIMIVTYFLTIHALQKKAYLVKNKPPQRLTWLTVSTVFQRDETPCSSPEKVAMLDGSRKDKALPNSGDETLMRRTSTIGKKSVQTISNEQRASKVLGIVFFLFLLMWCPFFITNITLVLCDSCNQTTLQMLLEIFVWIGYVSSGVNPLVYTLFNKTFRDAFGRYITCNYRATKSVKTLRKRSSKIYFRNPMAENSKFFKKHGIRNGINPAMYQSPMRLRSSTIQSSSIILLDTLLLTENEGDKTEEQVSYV

Compound	Emax [1, 3]	pEC50 [1, 4]	pEC50 [2, 5]	Emax ([2]; CHO-K1, read-out: Emax) [%]	Emax ([1]; CHO-K1) [%]	pEC50 ([1]; EC50, 5-HT2B agonist activity)	Emax ([2]; CHO-K1) [%]	pEC50 ([2]; EC50, 5-HT2C agonist activity)	Emax [2] [%]
COc1ccc2c(c1)[C@H]1CNC[C@@H]1CCC2=O [Example 259, (3aR,10bS)-9-Methoxy-2,3,3a,4,5,10b-hexahydrobenzo[3,4]cyclohepta[1,2-c]pyrrol-6(1H)-one]					85	6.00	> 120	7.22	
c1ccc2c(c1)OCC[C@H]1CNC[C@H]21 [Example 270, (3aR,10bS)-2,3,3a,4,5,10b-Hexahydro-1H-[1]benzoxepino[4,5-c]pyrrole]					50	6.70	> 120	8.00	
c1ccc2c(c1)OCC[C@@H]1CNC[C@@H]21 [Example 271, (3aS,10bR)-2,3,3a,4,5,10b-Hexahydro-1H-[1]benzoxepino[4,5-c]pyrrole]					30	5.30	120	6.40	
CN1C[C@@H]2CNC(=O)c3cc(OCc4ccccc4)ccc3[C@H]2C1 [Example 274, (3aS,10bS)-8-(Benzyloxy)-2-methyl-1,2,3,3a,4,5-hexahydrobenzo[e]pyrrolo[3,4-c]azepin-6(10bH)-one]	inactive					< 5.00	> 120	8.52	
CN1C[C@@H]2CNC(=O)c3cc(OCC4CC4)ccc3[C@H]2C1 [Example 277, (3aS,10bS)-8-(Cyclopropylmethoxy)-2-methyl-1,2,3,3a,4,5-hexahydrobenzo[e]pyrrolo[3,4-c]azepin-6(10bH)-one]	inactive					< 5.00	100	8.00	
C[C@H](O)c1cccc(-c2ccc3c(c2)C(=O)NC[C@H]2CN(C)C[C@H]32)c1 [Example 293, (3aS,10bS)-8-{3-[(1S)-1-Hydroxyethyl]phenyl}-2-methyl-2,3,3a,4,5,10b-hexahydropyrrolo[3,4-d][2]benzazepin-6(1H)-one]	inactive		8.70						
CC(C)COc1ccc2c(c1)C(=O)NC[C@H]1CNC[C@H]21 [Example 308, (3aR-10bS)-8-Isobutoxy-2,3,3a,4,5,10b-hexahydropyrrolo[3,4-d][2]benzazepin-6(1H)-one]	inactive					< 5.00	95	8.52	
CC(C)COc1ccc2c(c1)C(=O)NC[C@@H]1CNC[C@@H]21 [Example 309, (3aS,10bR)-8-Isobutoxy-2,3,3a,4,5,10b-hexahydropyrrolo[3,4-d][2]benzazepin-6(1H)-one]	inactive					< 5.00	70		
CCC(O)c1cccc(-c2ccc3c(c2)C(=O)NC[C@H]2CN(C)C[C@H]32)c1 (stereo partly drawn) [Example 311, (3aS,10bS)-8-[3-(1-Hydroxypropyl)phenyl]-2-methyl-2,3,3a,4,5,10b-hexahydropyrrolo[3,4-d][2]benzazepin-6(1H)-one]	inactive	< 5.00	9.10	95					
COc1ccc(-c2ccc3c(c2)C(=O)NC[C@H]2CN(C)C[C@H]32)cn1 [Example 318, (3aS,10bS)-8-(6-Methoxypyridin-3-yl)-2-methyl-2,3,3a,4,5,10b-hexahydropyrrolo[3,4-d][2]benzazepin-6(1H)-one]	inactive					< 5.00	90	8.00	
COc1ccc(-c2ccc3c(c2)C(=O)NC[C@H]2CN(C)C[C@H]32)c(F)c1 [Example 325, (3aS,10bS)-8-(2-Fluoro-4-methoxyphenyl)-2-methyl-2,3,3a,4,5,10b-hexahydropyrrolo[3,4-d][2]benzazepin-6(1H)-one]	inactive	< 5.00	8.70	90					
COc1cc(F)ccc1-c1ccc2c(c1)C(=O)NC[C@H]1CN(C)C[C@H]21 [Example 326, (3aS,10bS)-8-(4-Fluoro-2-methoxyphenyl)-2-methyl-2,3,3a,4,5,10b-hexahydropyrrolo[3,4-d][2]benzazepin-6(1H)-one]	inactive	< 5.00	8.05	85					
CN1C[C@@H]2CNC(=O)c3cc(-c4ccccn4)ccc3[C@H]2C1 [Example 388, (3aS,10bS)-2-Methyl-8-(pyridin-2-yl)-2,3,3a,4,5,10b-hexahydropyrrolo[3,4-d][2]benzazepin-6(1H)-one]	inactive	< 5.00	6.52				90		
Trans-8-(2-methoxyphenethoxy)-2-methyl-1,2,3,3a,4,5-hexahydrobenzo[e]pyrrolo[3,4-c]azepin-6(10bH)-one [Example 183]	inactive	< 5.00	7.40						65
Trans-8-(3-chloro-1H-pyrrol-2-yl)-2-methyl-2,3,3a,4,5,10b-hexahydropyrrolo[3,4-d][2]benzazepin-6(1H)-one and Trans-8-(5-chloro-1H-pyrrol-2-yl)-2-methyl-2,3,3a,4,5,10b-hexahydropyrrolo[3,4-d][2]benzazepin-6(1H)-one [Example 386]	inactive	< 5.00	7.70						65

Now from value to compound, other results behind:

Emax [1, 3]	pEC50 [1, 4]	pEC50 [2, 5]	Emax ([2]; CHO-K1, read-out: Emax) [%]	Compound	Emax ([1]; CHO-K1) [%]	pEC50 ([1]; EC50, 5-HT2B agonist activity)	Emax ([2]; CHO-K1) [%]	pEC50 ([2]; EC50, 5-HT2C agonist activity)	Emax [2] [%]
inactive	< 5.00	7.70	> 120	COc1ccccc1-c1ccc2c(c1)C(=O)NC[C@H]1CN(C)C[C@H]21 [Example 275, (3aS,10bS)-8-(2-Methoxyphenyl)-2-methyl-1,2,3,3a,4,5-hexahydrobenzo[e]pyrrolo[3,4-c]azepin-6(10bH)-one]					
inactive	< 5.00	8.70	120	CC(=O)c1cccc(-c2ccc3c(c2)C(=O)NC[C@H]2CN(C)C[C@H]32)c1 [Example 278, (3aS,10bS)-8-(3-Acetylphenyl)-2-methyl-1,2,3,3a,4,5-hexahydrobenzo[e]pyrrolo[3,4-c]azepin-6(10bH)-one]					
inactive	< 5.00			C[C@@H](O)c1cccc(-c2ccc3c(c2)C(=O)NC[C@H]2CN(C)C[C@H]32)c1 [Example 294, (3aS,10bS)-8-{3-[(1R)-1-hydroxyethyl]phenyl}-2-methyl-2,3,3a,4,5,10b-hexahydropyrrolo[3,4-d][2]benzazepin-6(1H)-one]					100
inactive	< 5.00	9.15	100	CC(C)C(O)c1cccc(-c2ccc3c(c2)C(=O)NC[C@H]2CN(C)C[C@H]32)c1 (stereo partly drawn) [Example 304, (3aS,10bS)-8-[3-(1-Hydroxy-2-methylpropyl)phenyl]-2-methyl-2,3,3a,4,5,10b-hexahydropyrrolo[3,4-d][2]benzazepin-6(1H)-one]					
inactive	< 5.00	8.00	90	CN1C[C@@H]2CNC(=O)c3cc(-c4ccc5c(c4)C(=O)CC5)ccc3[C@H]2C1 [Example 306, (3aS,10bS)-2-Methyl-8-(3-oxo-2,3-dihydro-1H-inden-5-yl)-2,3,3a,4,5,10b-hexahydropyrrolo[3,4-d][2]benzazepin-6(1H)-one]					
inactive	< 5.00	9.15	100	CN1C[C@@H]2CNC(=O)c3cc(-c4ccc5c(c4)C(O)CC5)ccc3[C@H]2C1 (stereo partly drawn) [Example 310, (3aS,10bS)-8-(3-Hydroxy-2,3-dihydro-1H-inden-5-yl)-2-methyl-2,3,3a,4,5,10b-hexahydropyrrolo[3,4-d][2]benzazepin-6(1H)-one]					
inactive	< 5.00	8.70	90	CC(C)CC(O)c1cccc(-c2ccc3c(c2)C(=O)NC[C@H]2CN(C)C[C@H]32)c1 (stereo partly drawn) [Example 312, (3aS,10bS)-8-[3-(1-Hydroxy-3-methylbutyl)phenyl]-2-methyl-2,3,3a,4,5,10b-hexahydropyrrolo[3,4-d][2]benzazepin-6(1H)-one]					
inactive	< 5.00	9.10	95	CCCC(O)c1cccc(-c2ccc3c(c2)C(=O)NC[C@H]2CN(C)C[C@H]32)c1 (stereo partly drawn) [Example 313, (3aS,10bS)-8-[3-(1-Hydroxybutyl)phenyl]-2-methyl-2,3,3a,4,5,10b-hexahydropyrrolo[3,4-d][2]benzazepin-6(1H)-one]					
inactive	< 5.00	8.22	90	COc1ccc(-c2ccc3c(c2)C(=O)NC[C@H]2CN(C)C[C@H]32)cc1Cl [Example 319, (3aS,10bS)-8-(3-Chloro-4-methoxyphenyl)-2-methyl-2,3,3a,4,5,10b-hexahydropyrrolo[3,4-d][2]benzazepin-6(1H)-one]					
